Experimental data as given in the supplement of paper PMC10307832.

Each cell line was assayed with CC(C)(C)c1cc(NC(=O)Nc2ccc(-c3cn4c(n3)sc3cc(OCCN5CCOCC5)ccc34)cc2)no1 [Quizartinib] + Nc1nc2[nH]cc(CCc3ccc(C(=O)N[C@@H](CCC(=O)O)C(=O)O)cc3)c2c(=O)[nH]1 [Pemetrexed] (partner 0.2 µM) (assay: relative viability (nuclei count vs DMSO), 5 days (fraction); higher = more cells survive). Conditions: first compound 0.001 µM.
Summary of the method: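 Nuclei were stained with Hoechst during a one-step fixation (final 0.05% Triton X-100, 1% formaldehyde, 1 ug/ml Hoechst) carried out 5 days after dosing, then counted on 4× images. The cells, lung cancer lines in 1536-well plates, had been dosed by pin tool the day after seeding with one drug alone or a fixed anchor-drug dose plus five library-drug doses (not always all listed) in √10 steps. Relative viability is the nuclei count in treated wells divided by that in vehicle wells, and each value is the median of duplicate plates.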

Cell Line | relative viability
EPLC-272H | 0.255
NCI-H1563 | 1.18
NCI-H650 | 0.902
RERF-LC-KJ | 0.458
HCC-827 | 0.237
NCI-H2087 | 0.66
SK-MES-1 | 0.939
NCI-H1651 | 0.524
UMC-11 | 0.676
NCI-H1355 | 0.972
H3255 | 0.531
NCI-H1792 | 0.624
NCI-H647 | 0.141
LCLC-97TM1 | 0.178
LXF-289 | 0.789
LU99A | 0.206
NCI-H2023 | 0.209
NCI-H2228 | 0.288

Cell Line | relative viability
NCI-H1437 | 0.314
NCI-H1395 | 0.802
NCI-H2009 | 0.946
HCC-366 | 0.148
NCI-H1915 | 0.49
NCI-H2347 | 0.426
LCLC-103H | 0.419
NCI-H1734 | 0.375
NCI-H1944 | 0.55
NCI-H2170 | 0.252
SW 900 | 0.435
NCI-H358 | 0.164
LK-2 | 0.262
NCI-H2342 | 0.745
NCI-H1793 | 0.806
HCC-44 | 0.572
NCI-H522 | 0.948

Same assay, conditions: first compound 0.003162 µM

Cell Line | relative viability
EKVX | 0.363
EPLC-272H | 0.361
NCI-H520 | 0.557
NCI-H1563 | 0.788
NCI-H650 | 0.945
RERF-LC-KJ | 0.493
HCC-827 | 0.249
NCI-H2087 | 0.536
SK-MES-1 | 0.904
NCI-H1651 | 0.594
UMC-11 | 0.787
NCI-H1355 | 1.03
H3255 | 0.579
NCI-H1792 | 0.79
NCI-H647 | 0.125
LCLC-97TM1 | 0.177
LXF-289 | 0.827
LU99A | 0.189
NCI-H2023 | 0.215

Cell Line | relative viability
NCI-H2228 | 0.311
NCI-H1437 | 0.302
NCI-H1395 | 0.927
NCI-H2009 | 0.932
HCC-366 | 0.148
NCI-H1915 | 0.47
NCI-H2347 | 0.382
LCLC-103H | 0.485
NCI-H1734 | 0.412
NCI-H1944 | 0.575
NCI-H2170 | 0.242
SW 900 | 0.488
NCI-H358 | 0.148
LK-2 | 0.301
NCI-H2342 | 0.83
NCI-H1793 | 1.03
HCC-44 | 0.665
NCI-H522 | 0.984

Same assay, conditions: first compound 0.01 µM

Cell Line | relative viability
EKVX | 0.434
EPLC-272H | 0.4
NCI-H520 | 0.745
NCI-H1563 | 0.8
NCI-H650 | 0.9
RERF-LC-KJ | 0.48
NCI-H2087 | 0.71
SK-MES-1 | 0.981
NCI-H1651 | 0.665
UMC-11 | 0.864
NCI-H1355 | 0.92
H3255 | 0.546
NCI-H1792 | 0.913
NCI-H647 | 0.221
LCLC-97TM1 | 0.195
LXF-289 | 1
LU99A | 0.179
NCI-H2023 | 0.295

Cell Line | relative viability
NCI-H2228 | 0.355
NCI-H1437 | 0.305
NCI-H1395 | 0.717
NCI-H2009 | 1.05
HCC-366 | 0.129
NCI-H1915 | 0.552
NCI-H2347 | 0.45
LCLC-103H | 0.484
NCI-H1734 | 0.407
NCI-H1944 | 0.601
NCI-H2170 | 0.279
SW 900 | 0.422
NCI-H358 | 0.223
LK-2 | 0.285
NCI-H2342 | 0.774
NCI-H1793 | 0.841
HCC-44 | 0.655
NCI-H522 | 0.934

Same assay, conditions: first compound 0.03162 µM

Cell Line | relative viability
EKVX | 0.39
EPLC-272H | 0.26
NCI-H520 | 0.714
NCI-H1563 | 0.717
NCI-H650 | 0.912
RERF-LC-KJ | 0.457
HCC-827 | 0.24
NCI-H2087 | 0.661
SK-MES-1 | 0.563
NCI-H1651 | 0.596
UMC-11 | 0.771
NCI-H1355 | 1.09
H3255 | 0.593
NCI-H1792 | 0.69
NCI-H647 | 0.182
LCLC-97TM1 | 0.184
LXF-289 | 0.83
LU99A | 0.189

Cell Line | relative viability
NCI-H2228 | 0.316
NCI-H1437 | 0.335
NCI-H1395 | 0.74
NCI-H2009 | 1.02
HCC-366 | 0.165
NCI-H1915 | 0.477
NCI-H2347 | 0.443
LCLC-103H | 0.464
NCI-H1734 | 0.457
NCI-H1944 | 0.654
NCI-H2170 | 0.293
SW 900 | 0.485
LK-2 | 0.248
NCI-H2342 | 0.746
NCI-H1793 | 0.854
HCC-44 | 0.65
NCI-H522 | 0.948

Same assay, conditions: first compound 0.1 µM

Cell Line | relative viability
EKVX | 0.351
EPLC-272H | 0.305
NCI-H520 | 0.477
NCI-H1563 | 0.76
NCI-H650 | 1.09
RERF-LC-KJ | 0.492
HCC-827 | 0.276
NCI-H2087 | 0.651
SK-MES-1 | 0.817
NCI-H1651 | 0.59
UMC-11 | 0.818
NCI-H1355 | 0.935
